From patent EP0209707A2, “2-Aryl imidazoles, pharmaceutical compositions containing them and process for their preparation” (Dr. Karl Thomae GmbH, priority 1985, dated 1987)

Experiments:
[1] = test system: Thrombozytenaggregation in plättchenreichem Plasma gesunder Versuchspersonen; assay: Collagen-induced platelet aggregation (Born and Cross) in platelet-rich plasma; format: cell-based; conditions: 10 min, 50% change of optical density, plasma incubated 10 min with substance at 37°C
From the text: Die Thrombozytenaggregation wird nach der Methode von BORN und CROSS (J. Physiol. 170, 397 (1964)) in plättchenreichem Plasma gesunder Versuchspersonen gemessen. Zur Gerinnungshemmung wird das Blut mit Natriumcitrat 3,14 % im Volumenverhältnis 1:10 versetzt.
Der Verlauf der Abnahme der optischen Dichte der Plättchensuspension wird nach Zugabe der aggregationsauslösenden Substanz photometrisch gemessen und registriert. Aus dem Neigungswinkel der Dichtekurve wird auf die Aggregationsgeschwindigkeit geschlossen. Der Punkt der Kurve, bei dem die größte Lichtdurchlässigkeit vorliegt, dient zur Berechnung der "optical density".
Die Collagen-Menge wird möglichst gering gewählt, aber doch so, daß sich eine irreversibel verlaufende Reaktionskurve ergibt. Verwendet wird das handelsübliche Collagen der Firma Hormonchemie, München.
Vor der Collagen-Zugabe wird das Plasma jeweils 10 Minuten mit der Substanz bei 37°C inkubiert.
Aus den erhaltenen Meßzahlen wird graphisch eine EC50 berechnet, die sich auf eine 50%ige Änderung der "optical density" im Sinne einer Aggregationshemmung bezieht.

narkotisierten Katze = assay: Blood pressure effect and positive inotropic effect in the anaesthetised cat; format: in vivo; conditions: arterial pressure in Aorta abdominalis
Method: 1. Bestimmung der Blutdruckwirkung und der positiv inotropen Wirkung an der narkotisierten Katze
Die Untersuchungen wurden an Katzen durchgeführte die mit Pentobarbital-Natrium (40 mg/kg i.p.) narkotisiert waren. Die Tiere atmeten spontan. Der arterielle Blutdruck wurde in der Aorta abdominalis mit einem Statham-Druckwandler (P 23 Dc) gemessen. Für die Erfassung der positiv inotropen Wirkung wurde mit einem Kathetertipmanometer (Millar PC-350 A) der Druck in der linken Herzkammer gemessen. Daraus wurde der Kontraktilitätsparameter dp/dtmax mittels eines Analogdifferenzierers gewonnen. Die zu untersuchenden Substanzen wurden in eine Vena femoralis injiziert. Als Lösungsmittel diente Polydiol 200. Jede Substanz wurde an mindestens 2 Katzen geprüft.
Die nachfolgende Tabelle enthält die gefundenen Mittelwerte: […]

[2] = second value of the printed pair (presumably diastolic), 1 mg/kg i.v.

Structure (SMILES): COc1cc(S(C)(=O)=NC(C)=O)ccc1-c1nc2cc(C#N)ccc2[nH]1 (centres unmarked) [A, 2-[2'-Methoxy-4'-(N-acetyl-methylsulfoximino-phenyl)]-5-cyano-benzimidazol]
- EC50 [1]: 5.3 µM
- Blutdruck senkung in mm Hg (narkotisierten Katze; [2]): -20 mm Hg

Structure (SMILES): COc1cc([S+](C)[O-])ccc1-c1nc2ccc(C(C)=O)cc2[nH]1 (centres unmarked) [B, 2-(2'-Methoxy-4'-methylsulfinyl-phenyl)-5-acetyl-benzimidazol]
- EC50 [1]: 8.2 µM
- Blutdruck senkung in mm Hg (narkotisierten Katze; [2]): -28 mm Hg

Structure (SMILES): COc1cc(S(C)(=O)=O)ccc1-c1nc2ccc(C(C)=O)cc2[nH]1 [C, 2-(2'-Methoxy-4'-methylsulfonyl-phenyl)-5-acetyl-benzimidazol]
- EC50 [1]: 8 µM
- Blutdruck senkung in mm Hg (narkotisierten Katze; [2]): -24 mm Hg

Structure (SMILES): COc1cc(NS(C)(=O)=O)ccc1-c1nc2ccc(C#N)cc2[nH]1 [D, 5-Cyano-2-(4'-methansulfonylamino-2'-methoxy-phenyl)-benzimidazol]
- Blutdruck senkung in mm Hg (narkotisierten Katze; second value of the printed pair (presumably diastolic), 0,6 mg/kg i.v.): -27 mm Hg

Structure (SMILES): COC(=O)Nc1ccc(-c2nc3cnccc3[nH]2)c(OC)c1 [E, 2-(2'-Methoxy-4'-methoxycarbonylamino-phenyl)-imidazo-[4,5-c]pyridin]
- Blutdruck senkung in mm Hg (narkotisierten Katze; second value of the printed pair (presumably diastolic), 2 mg/kg i.v.): -12 mm Hg
